Reference: patent US20170348253A1, “Treatment of Drug-Resistant Microbial Infections” (NovaBiotics Limited, priority 2016, published 2017)

Tests used:
[1] = tested on: P. aeruginosa strain LES431; test: Neutropenic mouse thigh model of infection; format: in vivo, Pseudomonas aeruginosa; details: for Log10 reduction in cfu/g: neutropoenic mice, thigh, 24 h post-treatment, compared with vehicle control
Description: Mouse thigh infection model experiments were conducted at Eurofins Panlabs, (Taipei, Taiwan). Mice were rendered neutropoenic with cyclophosphamide prior to infection. They were separated into groups of 5 animals per treatment. […] Animals were sacrificed 25 h post infection (24 h post-treatment) and thigh weights and cfu/g of tissue were calculated and recorded.

[2] = tested on: Staphylococcus aureus; test: Aberdeen clinical study: sputum microbiology, resistance profile of predominant pathogen; format: in vivo; design: key: MRSA = Methicillin-resistant Staphylococcus aureus; MSSA = Methicillin-sensitive Staphylococcus aureus; PR = pan-resistant; S = sensitive; Cip^R = ciprofloxacin-resistant; Cip^S = ciprofloxacin sensitive; details: Patient 1, stable CF lung disease, oral 450 mg once daily increased weekly to four times daily; pre trial MRSA
Description: (§1) Patients≧18 years of age, weighing>50 kg with stable CF lung disease were commenced on oral cysteamine bitartrate (Cystagon®) 450 mg once daily, increased weekly to 450 mg four times daily. Serial plasma cysteamine concentrations were measured for 24 h after the first dose. Participants were reviewed every week for 6 weeks, except at 4 weeks. Plasma cysteamine concentrations were measured 8 h after dosing when reviewed at 1, 2 and 3 weeks and 6 h after dosing when reviewed at 5 weeks. Sputum cysteamine concentration was also quantified at the 5-week assessment. Routine monitoring of clinical microbiology and reporting of speciation and resistance profile of major colonising microorganisms from patients continued as normal, prior to, during where necessary and after the trial by the hospital microbiology laboratory.

[3] = tested on: P. aeruginosa; test: as above; format: in vivo, Pseudomonas aeruginosa; details: oral 450 mg once daily increased weekly to four times daily
Description: as §1

Colistin
Log10 reduction in cfu/g ([1]; 5 mg/kg SC): 5.02 log10 cfu/g

O=C(O)c1cn(C2CC2)c2cc(N3CCNCC3)c(F)cc2c1=O [Ciprofloxacin]
Log10 reduction in cfu/g ([1]; 15 mg/kg i.v.): 2.02 log10 cfu/g

NCCS.O=C(O)C(O)C(O)C(=O)O (stereo not shown) [cysteamine bitartrate]
Post trial microbiology (predominant pathogen in sputum) [2]: MSSA | Post trial microbiology (predominant pathogen in sputum) ([3]; Patient 2, stable CF lung disease, pre trial PR P. aeruginosa): S P. aeruginosa | Post trial microbiology (predominant pathogen in sputum) ([3]; Patient 3, stable CF lung disease, pre trial Cip^R P. aeruginosa): Cip^S P. aeruginosa

NCCS [Cysteamine, cysteamine]
Effect of cysteamine on the activity of ciprofloxacin ([1]; neutropenic mouse thigh model, cysteamine 1.25 mg/kg with ciprofloxacin 15 mg/kg): chemopotentiates the activity of ciprofloxacin | Log10 reduction in cfu/g ([1]; 1.25 mg/kg i.v.): 0.74 log10 cfu/g
